Series [1] in a line: Human liver microsome (HLM) assay. In kind it is in vitro ADME. The note with it: human liver microsomes, 5 μM test compound. The procedure: Human Liver Microsome (HLM) Assay Compound metabolism in human liver microsomes was measured by LC-MS analytical assay procedures as follows. […] (3 tubes per test compound-triplicate). […] The samples were then transferred to separate polypropylene microcentrifuge tubes and centrifuged at 14000 g for 10 min. (Fisher Micro […] M0017580). For each replicate (#1-3) at each timepoint (0 and 2 h), an aliquot sample of each test compound was combined into a single HPLC vial insert (6 total samples) for LC-MS analysis, which is described below.
(Microsomes from liver hold many membrane-bound enzymes, among them those of drug oxidation.)

Series [2] is described as follows: Determination of inhibitor concentration in mouse plasma after intraperitoneal and oral dosing. The series is classed as in vivo. The method, boiled down: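 Mice dosed intraperitoneally or orally; blood taken by ocular bleed at 0.5, 1 and 4 h and by intracardiac puncture at 7 h. Plasma extracted with ethyl acetate after internal standard and NaOH addition, analysed by HPLC or LC-MS against a mouse-plasma standard curve.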

Where [3] appears, read: IP, 25 mg/kg, vehicle PEG400:H2O pH 2.3 60:40.
Where [4] appears, read: PO, 50 mg/kg, vehicle PEG400:H2O pH 2.3 60:40.
[5] abbreviates: IP, 25 mg/kg, vehicle PEG400:H2O pH 2.3 30:70.
The mark [6] stands for this setting: PO, 50 mg/kg, vehicle PEG400:H2O pH 2.3 30:70.
Setting [7] is: female, IP, 25 mg/kg, vehicle PEG400:H2O pH 2.3 30:70, read-out: Cmin (7 hr conc.).
[8] abbreviates: female, PO, 50 mg/kg, vehicle PEG400:H2O pH 2.3 30:70, read-out: Cmin (7 hr conc.).
The mark [9] stands for this setting: PO, 25 mg/kg, vehicle PEG400:H2O pH 2.3 30:70.
Setting [10] is: female, PO, 25 mg/kg, vehicle PEG400:H2O pH 2.3 30:70, read-out: Cmin (7 hr conc.).

We go through 18 molecules from patent US6534524B1, “Indazole compounds and pharmaceutical compositions for inhibiting protein kinases, and methods for their use” (Agouron Pharmaceuticals, Inc., priority 1999, dated 2003).

Structures are written as SMILES. Like-named read-outs stand apart in the source and are kept apart here.

Turning to `O=C(c1cccc(NC(=O)c2ccccn2)c1)c1ccc2c(/C=C/c3ccccc3)n[nH]c2c1` [Example 19(k), 6-[3-(Pyridin-2-ylcarboxamido)benzoyl]-3-E-styryl-1H-indazole], the “% remain (HLM, 2 h)” value in series [1] is 58%. In series [2] (setting [3]), the AUClast amounted to 428 ng·h/mL, the Cmax (commonly the maximum level reached in the sampled fluid or tissue) is 149 ng/mL and the “plasma half-life (T1/2)” value came to 2.2 h. Also, in series [2] (setting [4]), the AUClast came to 19 ng·h/mL, the Cmax is 8 ng/mL and the “plasma half-life (T1/2)” value stood at 2.2 h. Moreover, the concentration at 7 h in series [2] (female, IP, 25 mg/kg, vehicle PEG400:H2O pH 2.3 60:40, read-out: Cmin (7 hr conc.)) turned out to be 15 ng/mL. The concentration at 7 h in series [2] (female, PO, 50 mg/kg, vehicle PEG400:H2O pH 2.3 60:40, read-out: Cmin (7 hr conc.)) came out at 4 ng/mL.

Regarding `CNC(=O)c1ccccc1Sc1ccc2c(/C=C/c3ccccn3)n[nH]c2c1` [Example 33(a), 6-[2-(methylcarbamoyl)phenylsulfanyl]-3-E-[2-(pyridin-2-yl)ethenyl]indazole], the “% remain (HLM, 2 h)” value in series [1] is recorded as 29%. Also, the AUClast in series [2] (setting [5]) turned out to be 13813 ng·h/mL; in series [2] (setting [6]), 19067 ng·h/mL. Further, the Cmax in series [2] (setting [5]) came to 13794 ng/mL; in series [2] (setting [6]), 23562 ng/mL; in series [2] (female, PO, 25 mg/kg, vehicle 0.5% CMC, read-out: Cmax), 721 ng/mL; in series [2] (female, PO, 100 mg/kg, vehicle 0.5% CMC, read-out: Cmax), 3560 ng/mL.

`CCCNC(=O)c1ccccc1Sc1ccc2c(/C=C/c3ccccn3)n[nH]c2c1` [Example 35(a), 6-[2-(n-Propylcarbamoyl)phenylsulfanyl]-3-E-[2-(pyridin-2-yl)ethenyl]-1H-indazole]: the “% remain (HLM, 2 h)” value in series [1] was determined as 33%. For the same molecule, the AUClast turned out to be 2032 ng·h/mL in series [2] (setting [5]) and 2445 ng·h/mL in series [2] (setting [6]). Besides, the figures for the Cmax in series [2] (setting [5]) and in series [2] (setting [6]) were 2138 ng/mL and 1780 ng/mL, respectively. Besides, the “plasma half-life (T1/2)” value was 1.4 h in series [2] (setting [5]) and 0.9 h in series [2] (setting [6]). Besides, the concentration at 7 h amounted to 24 ng/mL in series [2] (setting [7]) and 10 ng/mL in series [2] (setting [8]).

For the molecule `COc1cccc(CNC(=O)c2ccccc2Sc2ccc3c(/C=C/c4ccccn4)n[nH]c3c2)c1` [Example 35(aa)], the “% remain (HLM, 2 h)” value in series [1] turned out to be 15%. In series [2] (setting [9]), the AUClast was found to be 4036 ng·h/mL and the “plasma half-life (T1/2)” value turned out to be 2.1 h. Further, the concentration at 7 h in series [2] (setting [10]) stood at 106 ng/mL.

As for `O=C(NCc1ccco1)c1ccccc1Sc1ccc2c(/C=C/c3ccccn3)n[nH]c2c1` [Example 35(bb), 6-[2-((fur-2-yl)Methylcarbamoyl)phenylsulfanyl]-3-E-[2-(pyridin-2-yl)ethenyl]-1H-indazole], in series [1], the “% remain (HLM, 2 h)” value is given as 8%.

With `O=C(NC1CCC1)c1ccccc1Sc1ccc2c(/C=C/c3ccccn3)n[nH]c2c1` [Example 35(c), 6-[2-(Cyclobutylcarbamoyl)phenylsulfanyl]-3-E-[2-(pyridin-2-yl)ethenyl]-1H-indazole], the “% remain (HLM, 2 h)” value in series [1] is 17%. In addition, in series [2] (setting [5]), the AUClast worked out at 9408 ng·h/mL, the Cmax is 1976 ng/mL and the “plasma half-life (T1/2)” value came out at 3.2 h. In series [2] (setting [6]), the AUClast was determined as 4744 ng·h/mL and the “plasma half-life (T1/2)” value was determined as 4.9 h. Besides, the concentration at 7 h in series [2] (setting [7]) came to 465 ng/mL. In series [2] (setting [8]), the concentration at 7 h was 321 ng/mL.

Regarding `C#CCNC(=O)c1ccccc1Sc1ccc2c(/C=C/c3ccccn3)n[nH]c2c1` [Example 35(cc), 6-[2-(2-Propynylcarbamoyl)phenylsulfanyl]-3-E-[2-(pyridin-2-yl)ethenyl]-1H-indazole], the “% remain (HLM, 2 h)” value in series [1] came out at 31%. For the same molecule, the AUClast amounted to 2223 ng·h/mL in series [2] (setting [5]) and 1718 ng·h/mL in series [2] (setting [6]). In addition, the entries for the “plasma half-life (T1/2)” value in series [2] (setting [5]) and in series [2] (setting [6]) were 1.4 h and 0.9 h, respectively. Also, the concentration at 7 h was found to be 6 ng/mL in series [2] (setting [7]) and 5 ng/mL in series [2] (setting [8]).

With `Cn1cccc1C(=O)NNC(=O)c1ccccc1Sc1ccc2c(/C=C/c3ccccn3)n[nH]c2c1` [Example 35(e), 6-[2-((1-Methylpyrrol-2-ylhydrazido)carbonyl)phenylsulfanyl]-3-E-[2-(pyridin-2-yl)ethenyl]-1H-indazole], in series [1], the “% remain (HLM, 2 h)” value stood at 34%. The AUClast in series [2] (setting [5]) is 2409 ng·h/mL; in series [2] (setting [6]) it was 1503 ng·h/mL. The figures for the “plasma half-life (T1/2)” value in series [2] (setting [5]) and in series [2] (setting [6]) were 1.8 h and 0.9 h, respectively. Further, the concentration at 7 h in series [2] (setting [7]) is 65 ng/mL; in series [2] (setting [8]), 6 ng/mL.

Turning to `C=C(C)CNC(=O)c1ccccc1Sc1ccc2c(/C=C/c3ccccn3)n[nH]c2c1` [Example 35(ee), 6-[2-(2-Methyl-2-propenylcarbamoyl)phenylsulfanyl]-3-E-[2-(pyridin-2-yl)ethenyl]-1H-indazole], the “% remain (HLM, 2 h)” value in series [1] came out at 13%. The AUClast in series [2] (setting [5]) is 546 ng·h/mL; in series [2] (setting [9]), 157 ng·h/mL. Also, the “plasma half-life (T1/2)” value in series [2] (setting [5]) amounted to 1.5 h; in series [2] (setting [9]) it was 14.6 h. Besides, the concentration at 7 h in series [2] (setting [7]) came out at 2 ng/mL; in series [2] (setting [10]) it was 9 ng/mL.

`O=C(NCc1ccccc1F)c1ccccc1Sc1ccc2c(/C=C/c3ccccn3)n[nH]c2c1` [Example 35(f)]: the “% remain (HLM, 2 h)” value in series [1] is reported as 15%.

For `COc1ccc(CNC(=O)c2ccccc2Sc2ccc3c(/C=C/c4ccccn4)n[nH]c3c2)cc1` [Example 35(g)], in series [1], the “% remain (HLM, 2 h)” value is 53%. Further, in series [2] (setting [9]), the AUClast amounted to 231 ng·h/mL and the “plasma half-life (T1/2)” value worked out at 16.1 h. For the same molecule, the concentration at 7 h in series [2] (setting [10]) amounted to 28 ng/mL.

For `Cc1ccc(CNC(=O)c2ccccc2Sc2ccc3c(/C=C/c4ccccn4)n[nH]c3c2)o1` [Example 35(h), 6-[2-((5-Methylfur-2-yl)methylcarbamoyl)phenylsulfanyl]-3-E-[2-(pyridin-2-yl)ethenyl]-1H-indazole], the “% remain (HLM, 2 h)” value in series [1] is 9%. In addition, in series [2] (setting [5]), the AUClast is 59 ng·h/mL and the “plasma half-life (T1/2)” value stood at 1.5 h. Also, in series [2] (setting [6]), the AUClast is 26 ng·h/mL and the Cmax is 7 ng/mL. In addition, the concentration at 7 h in series [2] (setting [7]) is 1 ng/mL. In series [2] (setting [8]), the concentration at 7 h came out at 2 ng/mL.

For the molecule `CC(C)ONC(=O)c1ccccc1Sc1ccc2c(/C=C/c3ccccn3)n[nH]c2c1` [Example 35(k), 6-[2-(Isopropoxycarbamoyl)phenylsulfanyl]-3-E-[2-(pyridin-2-yl)ethenyl]-1H-indazole], the “% remain (HLM, 2 h)” value in series [1] is 14%. Moreover, the AUClast in series [2] (setting [5]) came to 2640 ng·h/mL; in series [2] (setting [6]) it was 5529 ng·h/mL. Besides, the “plasma half-life (T1/2)” value in series [2] (setting [5]) and in series [2] (setting [6]) was 1.4 h each time. For the same molecule, the concentration at 7 h amounted to 35 ng/mL in series [2] (setting [7]) and 33 ng/mL in series [2] (setting [8]).

On to `O=C(NOCC1CC1)c1ccccc1Sc1ccc2c(/C=C/c3ccccn3)n[nH]c2c1` [Example 35(s), 6-[2-((Cyclopropyl)methoxycarbamoyl)phenylsulfanyl]-3-E-[2-(pyridin-2-yl)ethenyl]-1H-indazole], for which the “% remain (HLM, 2 h)” value in series [1] was 16%. Also, the “plasma half-life (T1/2)” value in series [2] (setting [9]) was found to be 2.2 h. Further, the AUC(0-t) (as a rule, the area under the concentration-time curve up to a stated or last time point) in series [2] (female, PO, 25 mg/kg, vehicle PEG400:H2O pH 2.3 30:70) was 7420 ng·h/mL. Besides, the Cmax in series [2] (female, PO, 25 mg/kg, vehicle PEG400:H2O pH 2.3 30:70, read-out: Cmax) is 3370 ng/mL. Moreover, in series [2] (setting [10]), the concentration at 7 h is 86 ng/mL.

As to `CCCONC(=O)c1ccccc1Sc1ccc2c(/C=C/c3ccccn3)n[nH]c2c1` [Example 35(t), 6-[2-(n-Propoxycarbamoyl)phenylsulfanyl]-3-E-[2-(pyridin-2-yl)ethenyl]-1H-indazole], the “% remain (HLM, 2 h)” value in series [1] turned out to be 7%. For the same molecule, in series [2] (setting [9]), the AUClast came out at 3199 ng·h/mL and the “plasma half-life (T1/2)” value turned out to be 1.1 h. Besides, the concentration at 7 h in series [2] (setting [10]) was 41 ng/mL.

For the molecule `C=CCNC(=O)c1ccccc1Sc1ccc2c(/C=C/c3ccccn3)n[nH]c2c1` [Example 35(u), 6-[2-(Allylcarbamoyl)phenylsulfanyl]-3-E-[2-(pyridin-2-yl)ethenyl]-1H-indazole], in series [1], the “% remain (HLM, 2 h)” value is given as 27%.

In the case of `CCONC(=O)c1cccc(F)c1Sc1ccc2c(/C=C/c3ccccn3)n[nH]c2c1` [Example 37(a), 6-[6-Fluoro-2-(ethoxycarbamoyl)phenylsulfanyl]-3-E-[2-(pyridin-2-yl)ethenyl]-1H-indazole], the “% remain (HLM, 2 h)” value in series [1] is reported as 21%.

On to `O=C(Cc1cc(F)cc(F)c1)Nc1cccc(C(=O)c2ccc3c(/C=C/c4ccccn4)n[nH]c3c2)c1` [Example 41(f), 6-[3-(3,5-Difluorophenylacetamido)benzoyl]-3-E-[2-(pyridin-2-yl)ethenyl]-1H-indazole], for which, in series [1], the “% remain (HLM, 2 h)” value stood at 59%.
